Key:
Experiment in all cases: Differential Scanning Fluorimetry (DSF) Tm shift
Format in all cases: binding
CHK2 Catalytic Domain = biological target: T1, CHK2 Catalytic Domain (Homo sapiens, UniProt O96017); settings: 2 µM protein, 10 µM inhibitor, average of 3 experiments, each in duplicate
T1 construct: For all of them, we expressed and purified the catalytic domain separately; His-tag; made in house; host or cells: Escherichia coli

DMPK Catalytic Domain = biological target: T2, DMPK Catalytic Domain (Homo sapiens, UniProt Q09013); settings: 2 µM protein, 10 µM inhibitor, average of 3 experiments, each in duplicate
T2 construct: For all of them, we expressed and purified the catalytic domain separately; His-tag; made in house; host or cells: Escherichia coli
T2 sequence (Q09013 71-339 limits assumed): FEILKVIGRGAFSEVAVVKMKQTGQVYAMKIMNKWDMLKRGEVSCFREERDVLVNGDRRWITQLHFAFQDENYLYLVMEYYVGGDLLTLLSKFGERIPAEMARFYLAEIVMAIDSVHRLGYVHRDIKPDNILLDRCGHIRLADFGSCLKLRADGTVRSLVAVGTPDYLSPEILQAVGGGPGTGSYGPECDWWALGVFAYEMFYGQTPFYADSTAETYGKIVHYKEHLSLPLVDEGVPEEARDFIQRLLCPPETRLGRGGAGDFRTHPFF

STK3 Catalytic Domain = biological target: T3, STK3 Catalytic Domain (Homo sapiens, UniProt Q13188); settings: 2 µM protein, 10 µM inhibitor, average of 3 experiments, each in duplicate
T3 construct: For all of them, we expressed and purified the catalytic domain separately; His-tag; made in house; host or cells: Escherichia coli
T3 sequence (Q13188 27-278 limits assumed): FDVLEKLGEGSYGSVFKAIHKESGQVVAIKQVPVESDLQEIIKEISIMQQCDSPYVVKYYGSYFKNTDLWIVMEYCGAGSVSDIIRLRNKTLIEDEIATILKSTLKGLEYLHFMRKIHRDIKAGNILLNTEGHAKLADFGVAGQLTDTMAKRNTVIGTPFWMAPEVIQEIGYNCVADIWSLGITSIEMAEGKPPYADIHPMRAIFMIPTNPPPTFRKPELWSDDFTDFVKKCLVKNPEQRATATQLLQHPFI

PAK7 Catalytic Domain = biological target: T4, PAK7 Catalytic Domain (Homo sapiens, UniProt Q9P286); settings: 2 µM protein, 10 µM inhibitor, average of 3 experiments, each in duplicate
T4 construct: For all of them, we expressed and purified the catalytic domain separately; His-tag; made in house; host or cells: Escherichia coli
T4 sequence (Q9P286 449-700 limits assumed): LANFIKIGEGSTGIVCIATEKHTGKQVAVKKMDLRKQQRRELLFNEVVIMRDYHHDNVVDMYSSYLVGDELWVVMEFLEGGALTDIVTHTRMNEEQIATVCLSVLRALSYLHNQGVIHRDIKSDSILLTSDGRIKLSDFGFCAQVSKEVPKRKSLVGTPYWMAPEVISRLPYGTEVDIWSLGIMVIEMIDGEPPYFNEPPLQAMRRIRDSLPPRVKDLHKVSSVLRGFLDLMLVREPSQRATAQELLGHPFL

[1] = biological target: T5, PAK4 Catalytic Domain+PBD (Homo sapiens, UniProt O96013); settings: 2 µM protein, 10 µM inhibitor, average of 3 experiments, each in duplicate
T5 construct: for 8, we also made a longer version containing one or more additional domains; His-tag; made in house; host or cells: Escherichia coli
T5 sequence (O96013 whole entry, the tested form may be a part): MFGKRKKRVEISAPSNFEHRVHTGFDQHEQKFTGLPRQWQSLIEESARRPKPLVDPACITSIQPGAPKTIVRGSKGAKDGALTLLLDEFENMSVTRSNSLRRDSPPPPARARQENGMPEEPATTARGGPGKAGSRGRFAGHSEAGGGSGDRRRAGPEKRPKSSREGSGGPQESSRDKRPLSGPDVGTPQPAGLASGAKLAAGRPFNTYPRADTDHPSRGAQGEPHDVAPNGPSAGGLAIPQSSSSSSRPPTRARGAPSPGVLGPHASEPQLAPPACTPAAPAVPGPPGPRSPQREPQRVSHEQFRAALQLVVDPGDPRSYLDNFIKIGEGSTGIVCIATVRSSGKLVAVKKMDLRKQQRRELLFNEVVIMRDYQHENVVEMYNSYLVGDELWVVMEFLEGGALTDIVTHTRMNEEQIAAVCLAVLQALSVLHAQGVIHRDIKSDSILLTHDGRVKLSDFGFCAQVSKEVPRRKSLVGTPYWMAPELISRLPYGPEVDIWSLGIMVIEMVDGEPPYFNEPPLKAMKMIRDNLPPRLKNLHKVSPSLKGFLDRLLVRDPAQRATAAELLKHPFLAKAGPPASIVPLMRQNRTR

[2] = biological target: T6, STK3 Catalytic domain+SARAH (Homo sapiens, UniProt Q13188); settings: 2 µM protein, 10 µM inhibitor, average of 3 experiments, each in duplicate
T6 construct: for 8, we also made a longer version containing one or more additional domains; His-tag; made in house; host or cells: Escherichia coli
T6 sequence (Q13188 1-491): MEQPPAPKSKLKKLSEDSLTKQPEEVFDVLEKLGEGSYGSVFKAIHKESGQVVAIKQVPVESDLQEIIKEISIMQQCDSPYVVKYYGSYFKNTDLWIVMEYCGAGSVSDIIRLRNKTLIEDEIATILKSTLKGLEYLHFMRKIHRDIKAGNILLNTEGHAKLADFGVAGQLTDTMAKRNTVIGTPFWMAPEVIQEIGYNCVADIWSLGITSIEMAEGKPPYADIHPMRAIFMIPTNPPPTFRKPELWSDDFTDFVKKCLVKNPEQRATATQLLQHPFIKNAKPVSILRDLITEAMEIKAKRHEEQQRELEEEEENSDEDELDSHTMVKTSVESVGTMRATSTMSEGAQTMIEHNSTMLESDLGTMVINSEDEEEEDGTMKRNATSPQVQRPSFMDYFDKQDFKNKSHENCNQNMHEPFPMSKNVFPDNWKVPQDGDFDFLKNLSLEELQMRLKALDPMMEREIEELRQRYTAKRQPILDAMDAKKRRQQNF

CDK2 + Cyclin E = biological target: T7, CDK2 + Cyclin E (Homo sapiens, UniProt P24941); settings: CDK2 + Cyclin E; 2 µM protein, 10 µM inhibitor; average of 3 experiments, each in duplicate
T7 construct: CDK2 (P24941); 1–299; His-tag; made in house; host or cells: Escherichia coli

FES Catalytic Domain = biological target: T8, FES Catalytic Domain (Homo sapiens, UniProt P07332); settings: 2 µM protein, 10 µM inhibitor, average of 3 experiments, each in duplicate
T8 construct: For all of them, we expressed and purified the catalytic domain separately; His-tag; made in house; host or cells: Escherichia coli
T8 sequence (P07332 561-822 limits assumed): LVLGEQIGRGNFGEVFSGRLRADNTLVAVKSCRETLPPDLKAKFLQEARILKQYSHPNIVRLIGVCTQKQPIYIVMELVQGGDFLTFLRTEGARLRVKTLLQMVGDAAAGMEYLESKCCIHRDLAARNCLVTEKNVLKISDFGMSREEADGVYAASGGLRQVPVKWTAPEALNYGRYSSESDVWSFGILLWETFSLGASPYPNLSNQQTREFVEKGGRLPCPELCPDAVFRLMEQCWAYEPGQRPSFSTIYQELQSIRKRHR

PAK4 Catalytic Domain = biological target: T9, PAK4 Catalytic Domain (Homo sapiens, UniProt O96013); settings: 2 µM protein, 10 µM inhibitor, average of 3 experiments, each in duplicate
T9 construct: For all of them, we expressed and purified the catalytic domain separately; His-tag; made in house; host or cells: Escherichia coli
T9 sequence (O96013 321-572 limits assumed): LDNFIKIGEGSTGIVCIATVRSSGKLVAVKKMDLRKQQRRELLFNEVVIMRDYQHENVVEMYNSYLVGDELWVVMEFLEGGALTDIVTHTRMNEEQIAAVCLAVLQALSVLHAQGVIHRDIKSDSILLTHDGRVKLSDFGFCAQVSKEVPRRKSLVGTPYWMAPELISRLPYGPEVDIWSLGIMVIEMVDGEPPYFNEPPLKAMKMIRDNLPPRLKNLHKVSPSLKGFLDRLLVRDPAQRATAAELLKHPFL

FES Catalytic Domain+SH2 = biological target: T10, FES Catalytic Domain+SH2 (Homo sapiens, UniProt P07332); settings: 2 µM protein, 10 µM inhibitor, average of 3 experiments, each in duplicate
T10 construct: for 8, we also made a longer version containing one or more additional domains; His-tag; made in house; host or cells: Escherichia coli
T10 sequence (P07332 448-822 limits assumed): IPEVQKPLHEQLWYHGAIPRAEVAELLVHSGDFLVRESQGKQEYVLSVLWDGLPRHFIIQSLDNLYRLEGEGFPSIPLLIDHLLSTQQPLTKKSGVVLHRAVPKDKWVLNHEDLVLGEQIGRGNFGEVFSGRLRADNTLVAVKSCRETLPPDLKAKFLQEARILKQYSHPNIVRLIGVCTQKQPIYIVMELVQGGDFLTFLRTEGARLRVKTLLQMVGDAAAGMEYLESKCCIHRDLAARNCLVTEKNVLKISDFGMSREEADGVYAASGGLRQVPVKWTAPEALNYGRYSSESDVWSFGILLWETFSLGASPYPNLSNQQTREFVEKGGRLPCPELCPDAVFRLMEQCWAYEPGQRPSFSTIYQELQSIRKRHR

FAK2 Catalytic Domain = biological target: T11, FAK2 Catalytic Domain (Homo sapiens, UniProt Q14289); settings: 2 µM protein, 10 µM inhibitor, average of 3 experiments, each in duplicate
T11 construct: For all of them, we expressed and purified the catalytic domain separately; His-tag; made in house; host or cells: Escherichia coli
T11 sequence (Q14289 425-683 limits assumed): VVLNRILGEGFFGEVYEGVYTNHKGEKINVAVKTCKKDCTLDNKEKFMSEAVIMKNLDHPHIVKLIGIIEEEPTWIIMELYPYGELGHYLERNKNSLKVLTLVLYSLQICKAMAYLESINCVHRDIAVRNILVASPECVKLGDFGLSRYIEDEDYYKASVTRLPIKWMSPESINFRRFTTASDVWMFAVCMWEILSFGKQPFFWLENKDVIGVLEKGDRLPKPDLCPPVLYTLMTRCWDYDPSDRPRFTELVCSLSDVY

CDK2 + Cyclin A = biological target: T12, CDK2 + Cyclin A (Homo sapiens, UniProt P24941); settings: CDK2 + Cyclin A; 2 µM protein, 10 µM inhibitor; average of 3 experiments, each in duplicate
T12 construct: CDK2 (P24941); 1–299; His-tag; made in house; host or cells: Escherichia coli

AKT3 Catalytic Domain = biological target: T13, AKT3 Catalytic Domain (Homo sapiens, UniProt Q9Y243); settings: 2 µM protein, 10 µM inhibitor, average of 3 experiments, each in duplicate
T13 construct: AKT3 (Q9Y243); CD; His-tag; made in house; host or cells: Escherichia coli
T13 sequence (Q9Y243 122-479): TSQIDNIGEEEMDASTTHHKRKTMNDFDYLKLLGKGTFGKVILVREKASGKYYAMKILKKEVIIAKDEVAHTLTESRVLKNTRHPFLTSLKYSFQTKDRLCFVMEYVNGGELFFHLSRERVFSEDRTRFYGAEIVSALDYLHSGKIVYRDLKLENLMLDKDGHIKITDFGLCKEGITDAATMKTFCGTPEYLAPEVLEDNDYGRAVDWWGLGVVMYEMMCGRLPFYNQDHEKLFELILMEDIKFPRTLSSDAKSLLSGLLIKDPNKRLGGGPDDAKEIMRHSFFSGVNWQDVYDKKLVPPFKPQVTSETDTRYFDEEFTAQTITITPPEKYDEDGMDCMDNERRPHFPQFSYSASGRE

[3] = biological target: SRC Catalytic Domain+SH2+SH3 (Homo sapiens, UniProt P12931); settings: 2 µM protein, 10 µM inhibitor, average of 3 experiments, each in duplicate
SRC Catalytic Domain+SH2+SH3, sequence (P12931 84-523 limits assumed): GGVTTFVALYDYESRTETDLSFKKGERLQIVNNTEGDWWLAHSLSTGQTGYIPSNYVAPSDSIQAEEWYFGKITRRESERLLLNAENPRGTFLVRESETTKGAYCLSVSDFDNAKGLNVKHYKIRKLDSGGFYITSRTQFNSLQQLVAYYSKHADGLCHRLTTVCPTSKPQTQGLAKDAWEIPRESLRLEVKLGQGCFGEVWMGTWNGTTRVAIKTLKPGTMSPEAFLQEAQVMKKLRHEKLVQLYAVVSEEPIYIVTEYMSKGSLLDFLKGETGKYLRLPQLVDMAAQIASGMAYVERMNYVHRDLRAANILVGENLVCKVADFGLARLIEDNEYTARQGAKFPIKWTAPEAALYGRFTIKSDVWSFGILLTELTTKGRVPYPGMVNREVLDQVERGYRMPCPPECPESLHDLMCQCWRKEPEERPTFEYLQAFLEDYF

T1 sequence (O96017 220-486 limits assumed): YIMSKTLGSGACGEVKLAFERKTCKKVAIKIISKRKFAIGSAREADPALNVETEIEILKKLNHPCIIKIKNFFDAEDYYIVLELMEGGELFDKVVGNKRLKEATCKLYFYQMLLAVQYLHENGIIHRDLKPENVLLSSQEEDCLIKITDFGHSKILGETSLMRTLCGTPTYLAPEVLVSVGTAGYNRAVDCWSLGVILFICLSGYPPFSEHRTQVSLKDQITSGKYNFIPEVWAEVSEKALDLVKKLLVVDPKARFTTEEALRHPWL

Structure (SMILES) | Melting temperature (Tm) shift (CHK2 Catalytic Domain) [degrees Celcius] | Melting temperature (Tm) shift (DMPK Catalytic Domain) [degrees Celcius] | Melting temperature (Tm) shift (STK3 Catalytic Domain) [degrees Celcius] | Melting temperature (Tm) shift (PAK7 Catalytic Domain) [degrees Celcius] | Melting temperature (Tm) shift [1] [degrees Celcius] | Melting temperature (Tm) shift [2] [degrees Celcius] | Melting temperature (Tm) shift (CDK2 + Cyclin E) [degrees Celcius] | Melting temperature (Tm) shift (FES Catalytic Domain) [degrees Celcius] | Melting temperature (Tm) shift (PAK4 Catalytic Domain) [degrees Celcius] | Melting temperature (Tm) shift (FES Catalytic Domain+SH2) [degrees Celcius] | Melting temperature (Tm) shift (FAK2 Catalytic Domain) [degrees Celcius] | Melting temperature (Tm) shift (CDK2 + Cyclin A) [degrees Celcius] | Melting temperature (Tm) shift (AKT3 Catalytic Domain) [degrees Celcius] | Melting temperature (Tm) shift [3] [degrees Celcius]
O=C1Nc2ccc(Cl)cc2C1=Cc1cc(Cl)c(O)c(Cl)c1 [PKR Inhibitor, Negative Control] | 3.9 | 3.2 | 1.2 | 0.3 | 1.5 | 2.1 | 0.6 | 0.4 | 0.9 | 0.5 | – | – | – | –
CC(C)n1cnc2c(NCc3ccccc3O)nc(NCCCO)nc21 [Cdk Inhibitor, p35] | 0.8 | 0.3 | 0.3 | 1.1 | 3.9 | 0.4 | 2.0 | 1.1 | 1.4 | 0.2 | 0.0 | 3.6 | – | –
O=C1c2ccccc2-c2nc3nnnn3nc21 [PDK1/Akt/Flt Dual Pathway Inhibitor] | 0.6 | – | – | – | – | 0.0 | 0.4 | 0.0 | – | – | – | 0.1 | 3.1 | –
CC(C)(C)c1nc2c3cc[nH]c(=O)c3c3cc(F)ccc3c2[nH]1 [JAK Inhibitor I] | 8.8 | – | 2.1 | 0.2 | 0.2 | 3.2 | 0.0 | 0.1 | 0.2 | 0.1 | 3.0 | 0.0 | – | –
O=C1NC(=O)/C(=C/c2ccc3nccnc3c2)S1 [PI 3-Kg Inhibitor] | 0.4 | 0.8 | 0.1 | 0.0 | – | 0.1 | – | 0.1 | 0.1 | 0.1 | – | 0.2 | 0.0 | 0.0
O=C1NC(=O)C(=Cc2ccc3c(c2)OCO3)S1 [PI 3-Kγ Inhibitor VII] | 0.1 | 0.3 | 0.2 | – | – | – | 0.1 | 0.0 | – | – | 0.0 | – | 0.0 | –
O=C1NC(=O)c2c1c1c3ccccc3[nH]c1c1[nH]c3cc(Br)ccc3c21 [Cdk4 Inhibitor] | – | 0.8 | – | – | 0.4 | – | 0.7 | – | 0.7 | – | – | – | – | –
O=C1NC(=O)c2c1c1c3ccccc3[nH]c1n1cncc21 [Isogranulatimide] | 4.5 | 0.5 | 2.6 | 0.2 | – | 1.3 | 0.2 | 1.6 | 0.4 | 0.5 | 0.8 | 0.1 | 2.9 | –
CCN1/C(=C/C(C)=O)Sc2ccc(OC)cc21 [Cdc2-Like Kinase Inhibitor, TG003] | 0.0 | 0.2 | 0.0 | 0.0 | – | – | 0.0 | 0.0 | – | – | 0.1 | 0.0 | – | –
O.O=C1NCCc2[nH]c(-c3ccnc(-c4cnc5ccccc5c4)c3)cc21 [MK-2 Inhibitor III] | 1.2 | 0.3 | 0.0 | 0.0 | 0.1 | 0.4 | – | – | 0.0 | – | 0.1 | 0.1 | 0.0 | 0.1

Reference: article PMC4051630, “A Comparison of Protein Kinases Inhibitor Screening Methods Using Both Enzymatic Activity and Binding Affinity Determination” (PLoS ONE, 2014)
